Measured values as given in ChEMBL document CHEMBL5291721, “A preclinical secondary pharmacology resource illuminates target-adverse drug reaction associations of marketed drugs” (Nat Commun, 2023).

Experiments:
[1] = biological target: Glutamate receptor ionotropic, NMDA 1 (Rattus norvegicus, UniProt P35439)
[2] = biological target: cGMP-inhibited 3',5'-cyclic phosphodiesterase 3A (Homo sapiens, UniProt Q14432); assay type: functional
[3] = biological target: Beta-1 adrenergic receptor (Homo sapiens, UniProt P08588); assay type: functional
Chain of Beta-1 adrenergic receptor (P08588 whole entry): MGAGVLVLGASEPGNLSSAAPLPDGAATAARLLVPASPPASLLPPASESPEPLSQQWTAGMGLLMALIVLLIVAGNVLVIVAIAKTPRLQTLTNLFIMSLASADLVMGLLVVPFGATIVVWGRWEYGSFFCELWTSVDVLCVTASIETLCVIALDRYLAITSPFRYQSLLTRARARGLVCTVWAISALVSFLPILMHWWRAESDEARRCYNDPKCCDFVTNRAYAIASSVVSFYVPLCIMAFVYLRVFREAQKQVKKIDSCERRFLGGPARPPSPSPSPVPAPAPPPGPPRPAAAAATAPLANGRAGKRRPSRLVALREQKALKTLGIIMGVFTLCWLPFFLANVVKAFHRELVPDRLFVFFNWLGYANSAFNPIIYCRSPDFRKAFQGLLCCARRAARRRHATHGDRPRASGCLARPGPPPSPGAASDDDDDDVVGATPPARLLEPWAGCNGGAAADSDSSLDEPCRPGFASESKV

Cannabinoid receptor 1 = Cannabinoid receptor 1 (Homo sapiens, UniProt P21554); assay type: functional, cell-based
Chain of Cannabinoid receptor 1 (P21554 whole entry): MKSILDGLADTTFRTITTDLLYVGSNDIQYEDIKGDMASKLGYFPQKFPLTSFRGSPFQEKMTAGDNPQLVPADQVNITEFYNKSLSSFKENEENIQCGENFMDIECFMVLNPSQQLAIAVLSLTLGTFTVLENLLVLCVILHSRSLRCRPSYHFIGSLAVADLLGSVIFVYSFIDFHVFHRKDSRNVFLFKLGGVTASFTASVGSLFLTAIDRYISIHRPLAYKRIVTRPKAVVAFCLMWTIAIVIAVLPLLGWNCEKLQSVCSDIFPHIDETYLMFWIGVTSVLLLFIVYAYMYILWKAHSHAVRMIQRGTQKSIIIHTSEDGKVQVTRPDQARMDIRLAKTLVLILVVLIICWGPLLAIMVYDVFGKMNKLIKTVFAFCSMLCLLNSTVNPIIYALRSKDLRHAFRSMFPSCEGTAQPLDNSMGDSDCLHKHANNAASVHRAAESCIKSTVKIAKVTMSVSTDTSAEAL

[4] = biological target: T1, Cholecystokinin receptor type A (Homo sapiens, UniProt P32238)
T1 sequence (P32238 whole entry): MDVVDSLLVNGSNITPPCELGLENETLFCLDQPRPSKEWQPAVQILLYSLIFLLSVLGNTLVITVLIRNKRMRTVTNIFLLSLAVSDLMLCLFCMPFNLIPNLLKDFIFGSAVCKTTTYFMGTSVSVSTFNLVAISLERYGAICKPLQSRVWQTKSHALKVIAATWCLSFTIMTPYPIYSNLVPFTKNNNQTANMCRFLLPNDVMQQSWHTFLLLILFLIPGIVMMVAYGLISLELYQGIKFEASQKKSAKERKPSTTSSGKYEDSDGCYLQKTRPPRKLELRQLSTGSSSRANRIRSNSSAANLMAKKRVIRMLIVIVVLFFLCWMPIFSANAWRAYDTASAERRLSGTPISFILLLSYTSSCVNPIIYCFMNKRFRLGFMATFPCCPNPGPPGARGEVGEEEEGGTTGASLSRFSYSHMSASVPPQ

Histamine H2 receptor = Histamine H2 receptor (Homo sapiens, UniProt P25021); assay type: functional, cell-based
Chain of Histamine H2 receptor (P25021 whole entry): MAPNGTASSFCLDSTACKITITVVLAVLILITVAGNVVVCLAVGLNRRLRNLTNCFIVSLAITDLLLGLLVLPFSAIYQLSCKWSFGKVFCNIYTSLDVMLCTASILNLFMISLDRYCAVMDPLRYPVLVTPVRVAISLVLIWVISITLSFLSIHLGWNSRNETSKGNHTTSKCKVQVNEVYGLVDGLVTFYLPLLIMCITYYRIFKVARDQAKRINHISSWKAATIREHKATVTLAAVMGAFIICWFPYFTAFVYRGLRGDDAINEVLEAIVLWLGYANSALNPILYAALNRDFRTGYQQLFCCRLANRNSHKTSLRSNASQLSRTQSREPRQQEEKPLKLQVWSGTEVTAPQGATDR

[5] = biological target: Sodium-dependent serotonin transporter (Homo sapiens, UniProt P31645)
[6] = biological target: T2, Gastrin/cholecystokinin type B receptor (Homo sapiens, UniProt P32239)
T2 sequence (P32239 whole entry): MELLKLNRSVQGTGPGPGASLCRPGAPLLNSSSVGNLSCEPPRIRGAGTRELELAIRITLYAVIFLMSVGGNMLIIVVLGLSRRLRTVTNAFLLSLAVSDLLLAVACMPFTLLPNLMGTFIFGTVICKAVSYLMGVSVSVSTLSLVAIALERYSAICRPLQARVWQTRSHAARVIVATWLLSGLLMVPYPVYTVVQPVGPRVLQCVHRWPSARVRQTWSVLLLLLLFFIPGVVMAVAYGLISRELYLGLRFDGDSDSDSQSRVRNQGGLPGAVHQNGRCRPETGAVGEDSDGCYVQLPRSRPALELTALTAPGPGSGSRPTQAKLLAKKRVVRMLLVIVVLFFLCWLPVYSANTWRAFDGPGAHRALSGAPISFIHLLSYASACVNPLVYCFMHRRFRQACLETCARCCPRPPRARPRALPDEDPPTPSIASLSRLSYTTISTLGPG

[7] = biological target: Delta-type opioid receptor (Homo sapiens, UniProt P41143)
Chain of Delta-type opioid receptor (P41143 whole entry): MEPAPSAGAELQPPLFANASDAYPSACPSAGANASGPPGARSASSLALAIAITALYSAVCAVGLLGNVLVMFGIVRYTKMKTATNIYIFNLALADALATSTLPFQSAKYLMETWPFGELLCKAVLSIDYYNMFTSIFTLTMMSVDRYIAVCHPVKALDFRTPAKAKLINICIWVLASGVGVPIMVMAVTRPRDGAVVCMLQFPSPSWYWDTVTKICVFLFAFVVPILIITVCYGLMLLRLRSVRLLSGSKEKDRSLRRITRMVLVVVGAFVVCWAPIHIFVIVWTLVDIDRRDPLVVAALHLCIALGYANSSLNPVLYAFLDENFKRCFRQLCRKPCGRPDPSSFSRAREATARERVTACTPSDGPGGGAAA

[8] = biological target: T3, Type-1 angiotensin II receptor (Homo sapiens, UniProt P30556)
T3 sequence (P30556 whole entry): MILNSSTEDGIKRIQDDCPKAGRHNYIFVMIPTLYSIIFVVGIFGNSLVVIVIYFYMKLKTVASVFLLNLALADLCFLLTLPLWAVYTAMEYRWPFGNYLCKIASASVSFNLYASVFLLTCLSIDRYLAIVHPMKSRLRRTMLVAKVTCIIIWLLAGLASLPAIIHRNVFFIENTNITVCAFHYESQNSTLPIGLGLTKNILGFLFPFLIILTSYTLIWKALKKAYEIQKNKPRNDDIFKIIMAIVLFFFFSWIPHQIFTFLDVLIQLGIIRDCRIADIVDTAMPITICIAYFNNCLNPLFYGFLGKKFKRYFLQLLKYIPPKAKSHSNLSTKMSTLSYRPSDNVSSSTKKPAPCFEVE

[9] = biological target: Growth hormone secretagogue receptor type 1 (Homo sapiens, UniProt Q92847)
Chain of Growth hormone secretagogue receptor type 1 (Q92847 whole entry): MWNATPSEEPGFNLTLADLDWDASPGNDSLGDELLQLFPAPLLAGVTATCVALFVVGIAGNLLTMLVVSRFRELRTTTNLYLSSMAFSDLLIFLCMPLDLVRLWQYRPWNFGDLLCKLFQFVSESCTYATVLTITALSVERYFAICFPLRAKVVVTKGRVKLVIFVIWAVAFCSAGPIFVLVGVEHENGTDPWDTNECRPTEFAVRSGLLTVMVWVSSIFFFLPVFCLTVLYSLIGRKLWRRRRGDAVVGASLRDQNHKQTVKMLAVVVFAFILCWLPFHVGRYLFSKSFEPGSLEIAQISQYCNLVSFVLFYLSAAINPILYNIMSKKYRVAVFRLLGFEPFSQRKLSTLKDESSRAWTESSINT

Thromboxane A2 receptor = biological target: T4, Thromboxane A2 receptor (Homo sapiens, UniProt P21731)
T4 sequence (P21731 whole entry): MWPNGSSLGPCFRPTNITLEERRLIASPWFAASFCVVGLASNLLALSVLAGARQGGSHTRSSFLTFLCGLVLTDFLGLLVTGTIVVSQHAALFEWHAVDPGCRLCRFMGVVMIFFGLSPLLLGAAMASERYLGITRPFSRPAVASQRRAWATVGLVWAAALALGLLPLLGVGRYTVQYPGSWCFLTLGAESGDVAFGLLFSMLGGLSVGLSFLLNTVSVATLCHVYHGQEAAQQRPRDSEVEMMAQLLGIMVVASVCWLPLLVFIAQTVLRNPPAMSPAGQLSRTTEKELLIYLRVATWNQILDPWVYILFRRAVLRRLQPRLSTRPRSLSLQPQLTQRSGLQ

Adenosine receptor A2a = Adenosine receptor A2a (Homo sapiens, UniProt P29274)
Chain of Adenosine receptor A2a (P29274 whole entry): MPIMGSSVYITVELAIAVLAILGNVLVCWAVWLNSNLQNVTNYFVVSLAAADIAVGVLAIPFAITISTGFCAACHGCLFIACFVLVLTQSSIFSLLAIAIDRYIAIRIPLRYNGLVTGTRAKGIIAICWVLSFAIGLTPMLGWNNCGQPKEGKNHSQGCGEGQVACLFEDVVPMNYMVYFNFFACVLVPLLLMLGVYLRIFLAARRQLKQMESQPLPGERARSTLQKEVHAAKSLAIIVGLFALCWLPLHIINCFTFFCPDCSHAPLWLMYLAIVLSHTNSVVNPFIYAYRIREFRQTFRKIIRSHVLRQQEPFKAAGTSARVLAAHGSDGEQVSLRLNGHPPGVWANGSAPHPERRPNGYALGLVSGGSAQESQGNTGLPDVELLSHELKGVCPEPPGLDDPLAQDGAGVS

[10] = biological target: 5-hydroxytryptamine receptor 2B (Homo sapiens, UniProt P41595); assay type: functional, cell-based
Chain of 5-hydroxytryptamine receptor 2B (P41595 whole entry): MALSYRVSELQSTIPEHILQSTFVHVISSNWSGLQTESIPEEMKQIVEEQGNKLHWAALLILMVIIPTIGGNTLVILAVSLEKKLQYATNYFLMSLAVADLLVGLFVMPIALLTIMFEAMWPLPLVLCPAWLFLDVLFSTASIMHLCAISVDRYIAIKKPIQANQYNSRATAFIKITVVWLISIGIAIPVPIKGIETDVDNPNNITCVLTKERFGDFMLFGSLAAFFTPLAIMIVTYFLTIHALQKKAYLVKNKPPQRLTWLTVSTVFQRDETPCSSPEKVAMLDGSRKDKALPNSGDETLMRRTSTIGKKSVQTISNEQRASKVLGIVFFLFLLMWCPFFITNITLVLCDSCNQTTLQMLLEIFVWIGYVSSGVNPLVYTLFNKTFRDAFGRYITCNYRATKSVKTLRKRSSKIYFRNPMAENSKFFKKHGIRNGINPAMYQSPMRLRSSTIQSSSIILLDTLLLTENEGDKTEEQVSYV

[11] = biological target: 5-hydroxytryptamine receptor 2A (Homo sapiens, UniProt P28223); assay type: functional, cell-based
Chain of 5-hydroxytryptamine receptor 2A (P28223 whole entry): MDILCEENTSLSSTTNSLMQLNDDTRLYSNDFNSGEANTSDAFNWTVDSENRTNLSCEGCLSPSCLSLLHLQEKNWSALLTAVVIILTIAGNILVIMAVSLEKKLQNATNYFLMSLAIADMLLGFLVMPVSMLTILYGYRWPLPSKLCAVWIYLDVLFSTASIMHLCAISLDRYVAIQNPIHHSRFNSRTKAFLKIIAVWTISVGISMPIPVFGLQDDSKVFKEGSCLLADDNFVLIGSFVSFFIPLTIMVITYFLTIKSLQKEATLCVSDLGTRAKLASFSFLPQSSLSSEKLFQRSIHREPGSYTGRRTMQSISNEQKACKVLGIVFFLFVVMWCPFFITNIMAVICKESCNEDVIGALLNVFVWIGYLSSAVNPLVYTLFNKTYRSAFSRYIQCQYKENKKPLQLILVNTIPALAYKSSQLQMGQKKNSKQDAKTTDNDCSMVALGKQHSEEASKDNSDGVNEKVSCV
Also: assay procedure not described here.

Chain of cGMP-inhibited 3',5'-cyclic phosphodiesterase 3A (Q14432 whole entry): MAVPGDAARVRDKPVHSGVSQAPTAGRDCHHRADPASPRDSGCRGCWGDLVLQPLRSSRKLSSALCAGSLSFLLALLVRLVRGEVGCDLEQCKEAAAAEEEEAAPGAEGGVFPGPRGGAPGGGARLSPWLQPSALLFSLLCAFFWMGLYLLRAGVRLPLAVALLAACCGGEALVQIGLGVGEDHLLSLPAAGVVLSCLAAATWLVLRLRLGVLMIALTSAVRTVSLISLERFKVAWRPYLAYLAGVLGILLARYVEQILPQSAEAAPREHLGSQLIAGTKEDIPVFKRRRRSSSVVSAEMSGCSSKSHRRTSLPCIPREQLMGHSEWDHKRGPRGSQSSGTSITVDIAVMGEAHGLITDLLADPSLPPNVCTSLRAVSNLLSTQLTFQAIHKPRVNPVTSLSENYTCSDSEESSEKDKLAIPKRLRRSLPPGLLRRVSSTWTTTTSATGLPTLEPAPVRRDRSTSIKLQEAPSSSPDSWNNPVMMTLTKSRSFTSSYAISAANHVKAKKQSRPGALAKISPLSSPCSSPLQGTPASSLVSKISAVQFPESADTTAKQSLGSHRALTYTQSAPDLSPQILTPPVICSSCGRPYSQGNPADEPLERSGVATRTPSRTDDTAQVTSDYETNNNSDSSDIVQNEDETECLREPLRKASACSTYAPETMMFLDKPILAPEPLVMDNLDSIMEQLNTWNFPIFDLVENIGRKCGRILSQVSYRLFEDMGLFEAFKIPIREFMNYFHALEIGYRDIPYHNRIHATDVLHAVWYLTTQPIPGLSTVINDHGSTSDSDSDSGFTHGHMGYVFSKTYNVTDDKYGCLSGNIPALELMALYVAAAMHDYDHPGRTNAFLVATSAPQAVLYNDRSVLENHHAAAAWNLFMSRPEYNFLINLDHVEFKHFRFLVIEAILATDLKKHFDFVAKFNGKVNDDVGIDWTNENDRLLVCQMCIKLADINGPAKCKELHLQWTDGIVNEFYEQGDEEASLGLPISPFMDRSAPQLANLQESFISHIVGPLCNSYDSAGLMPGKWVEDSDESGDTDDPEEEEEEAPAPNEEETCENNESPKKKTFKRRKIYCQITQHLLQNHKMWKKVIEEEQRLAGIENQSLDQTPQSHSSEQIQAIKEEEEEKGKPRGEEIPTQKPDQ

Row | Structure (SMILES) | AC50 [1] [µM] | AC50 [2] [µM] | AC50 [3] [µM] | AC50 (Cannabinoid receptor 1) [µM] | AC50 [4] [µM] | AC50 (Histamine H2 receptor) [µM] | AC50 [5] [µM] | AC50 [6] [µM] | AC50 [7] [µM] | AC50 [8] [µM] | AC50 [9] [µM] | AC50 (Thromboxane A2 receptor) [µM] | AC50 (Adenosine receptor A2a) [µM] | AC50 [10] [µM] | AC50 [11] [µM]
1 | CCOC(=O)[N-]c1cn(N2CCOCC2)n[o+]1 [MOLSIDOMINE] | > 30 | > 30 | > 30 | > 30 | > 30 | > 30 | > 30 | > 30 | > 10 | > 30 | > 30 | > 30 | > 30 | > 30 | > 30
2 | CC[C@@H]1C(=O)OC[C@@H]1Cc1cncn1C [PILOCARPINE] | > 10 | > 30 | – | > 30 | > 30 | > 10 | > 30 | > 30 | > 30 | > 30 | > 30 | > 30 | > 30 | > 10 | > 30
3 | CC(CC(c1ccccc1)c1ccccc1)NC(C)(C)C (stereo not drawn) [TERODILINE] | > 30 | > 30 | > 30 | > 30 | > 30 | > 30 | > 30 | > 30 | > 30 | > 30 | > 30 | > 30 | > 30 | > 30 | > 30
4 | CC(=O)OCC(=O)[C@@]12N=C(C)O[C@@H]1C[C@H]1[C@@H]3CCC4=CC(=O)C=C[C@]4(C)[C@H]3[C@@H](O)C[C@@]12C [DEFLAZACORT] | > 30 | > 30 | > 30 | > 30 | > 30 | > 30 | > 30 | > 30 | > 30 | > 30 | > 30 | > 30 | > 30 | > 30 | > 30
5 | CCCCCCOc1ccccc1C(N)=O [EXALAMIDE] | > 30 | > 30 | > 30 | > 30 | > 30 | > 30 | > 30 | > 30 | > 30 | > 30 | > 30 | > 30 | > 30 | 1.1 | > 30
6 | COc1ccc2c3c1O[C@H]1C(=O)CC[C@@]4(O)[C@@H](C2)N(C)CC[C@]314 [OXYCODONE] | > 30 | > 30 | > 30 | > 30 | > 30 | > 30 | > 30 | > 30 | – | > 30 | > 30 | > 30 | > 30 | > 30 | > 30
